Laboratory results as given in publication PMC8486872, “A rational blueprint for the design of chemically-controlled protein switches” (Nature Communications, 2021).
Where “and” joins values, the source holds several entries; their conditions need not be identical. Identical values can stand only once.

Tested on: Bcl-XL:LD3 complex (CDH-1)
Assay: SPR drug competition assay, Bcl-XL:LD3 (CDH-1) with Drug-1
Type: binding
Details: Fig S10d
Procedure: Drug IC50s of disrupting CDH heterodimers were measured on a Biacore 8 K device. 4 µM of LD3 and its variants (LD3_v1-3) or LD6 were mixed with their respective drugs. […] Multiple-cycle injection of the protein-drug complex with different stoichiometry were performed to measure the decrease of maximal RUs (response units at 120 sec). Apparent IC50s were obtained using the inhibition versus response fitting models in prism software (Version 8.3.0).
Apparent IC50s of SPR drug competition assay were calculated using three-parameter nonlinear regression in GraphPad Prism (Version 8.3.0). Representative data of cellular assays are presented as individual values and mean values (bars). n = 3 refers to biological replicates. All IC50/EC50 values of cellular assays (CDH-TF, CDH-GEMS, AIR-TF and AIR-GEMS) reported were calculated using four-parameter nonlinear regression ± s.d. […]
Readouts from the
sensorgrams were extracted at the time point 120 s to calculate the IC50s using a three-parameter

Structure (SMILES): CN(C)CC#Cc1ccc(OCCCc2sc(N3CCc4cccc(C(=O)Nc5nc6ccccc6s5)c4C3)nc2C(=O)O)c(F)c1 [Drug-1, A-1155463]
- IC50 (Bcl-Xl:LD3, best-fit, inhibitor vs. response (three parameters)): 220 pM
- logIC50 (Bcl-Xl:LD3, best-fit, three parameters, Drug-1 in nM): -0.658
- Bcl-Xl:LD3 response (Drug-1 0.001 nM): 275.326 and 251.306 and 243.642
- Bcl-Xl:LD3 response (Drug-1 0.005 nM): 242.985 and 229.287 and 224.833
- Bcl-Xl:LD3 response (Drug-1 0.01 nM): 223.576 and 215.113 and 215.946
- Bcl-Xl:LD3 response (Drug-1 0.05 nM): 225.211 and 226.402 and 224.55
- Bcl-Xl:LD3 response (Drug-1 0.1 nM): 186.039 and 182.298 and 182.078
- Bcl-Xl:LD3 response (Drug-1 0.5 nM): 123.883 and 120.417 and 119.693
- Bcl-Xl:LD3 response (Drug-1 1 nM): 121.627 and 115.582 and 111.718
- Bcl-Xl:LD3 response (Drug-1 5 nM): 122.215 and 115.477 and 118.457
- Bcl-Xl:LD3 response (Drug-1 10 nM): 92.0281 and 92.2496 and 88.1833
- Bcl-Xl:LD3 response (Drug-1 50 nM): 84.1354 and 86.416 and 84.392
- Bcl-Xl:LD3 response (Drug-1 100 nM): 81.6073 and 77.884 and 79.2329
- Bcl-Xl:LD3 response (Drug-1 500 nM): 65.1408 and 62.8874 and 62.5965
- Bcl-Xl:LD3 response (Drug-1 1000 nM): 42.6601 and 38.7292 and 40.0074
